Drawing on patent US12258327B2, “5-membered heteroaryl-containing aminopyridine compounds as EGFR inhibitors” (YUHAN CORPORATION, priority 2021, dated 2025), this text covers IC50 for 14 compounds.

In test [1] the target is EGFR del19/C797S (Homo sapiens, UniProt P00533, C797S/DEL746-750). Description: Biochemical EGFR kinase assay (Lance Ultra TR-FRET), double mutant del19/C797S. The essentials: (§1)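 Step 1: compound in kinase buffer, 0.003–10 μM. Step 2: kinase reaction 1 h at room temperature. Step 4: TR-FRET read at 615/665 nm; IC50 calculated.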
The target of test [2] is EGFR L858R/T790M/C797S (Homo sapiens, UniProt P00533, C797S/L858R/T790M). The experiment in a line: Biochemical EGFR kinase assay (Lance Ultra TR-FRET), triple mutant L858R/T790M/C797S. Put shortly:
as §1

Test [3] deals with EGFR L858R/C797S (Homo sapiens, UniProt P00533, C797S/L858R). The experiment in a line: Biochemical EGFR kinase assay (Lance Ultra TR-FRET), double mutant L858R/C797S. Put shortly: as §1
The target in test [4] is EGFR wildtype (WT) (Homo sapiens, UniProt P00533). The experiment in a line: Biochemical EGFR kinase assay (Lance Ultra TR-FRET), wildtype. The essentials:
as §1

Test [5] deals with EGFR del19/T790M/C797S (Homo sapiens, UniProt P00533, C797S/DEL746-750/T790M). The experiment in a line: Biochemical EGFR kinase assay (Lance Ultra TR-FRET), triple mutant del19/T790M/C797S. The essentials: as §1
[6] abbreviates: Km ATP, read-out: IC50 del19/C797S (nM) Km ATP.
Setting [7] is: Km ATP, read-out: IC50 L858R/T790M/C797S (nM) Km ATP.
[8] abbreviates: Km ATP, read-out: IC50 L858R/C797S (nM) Km ATP.
Where [9] appears, read: Km ATP, read-out: IC50 WT (nM) Km ATP.
The mark [10] stands for this setting: Km ATP, read-out: IC50 del19/T790M/C797S (nM) Km ATP.
Where [11] appears, read: IC50 del19/C797S (nM) 100 μM ATP, 100 μM ATP.
The mark [12] stands for this setting: IC50 L858R/T790M/C797S (nM) 100 μM ATP, 100 μM ATP.
The mark [13] stands for this setting: IC50 L858R/C797S (nM) 100 μM ATP, 100 μM ATP.
[14] abbreviates: IC50 WT (nM) 100 μM ATP, 100 μM ATP.
[15] abbreviates: IC50 del19/T790M/C797S (nM) 100 μM ATP, 100 μM ATP.

Where two headings read alike, the source gives them in different places.

Chain of EGFR del19/T790M/C797S (P00533 with tags, fused parts or gaps DEL746-750/T790M/C797S): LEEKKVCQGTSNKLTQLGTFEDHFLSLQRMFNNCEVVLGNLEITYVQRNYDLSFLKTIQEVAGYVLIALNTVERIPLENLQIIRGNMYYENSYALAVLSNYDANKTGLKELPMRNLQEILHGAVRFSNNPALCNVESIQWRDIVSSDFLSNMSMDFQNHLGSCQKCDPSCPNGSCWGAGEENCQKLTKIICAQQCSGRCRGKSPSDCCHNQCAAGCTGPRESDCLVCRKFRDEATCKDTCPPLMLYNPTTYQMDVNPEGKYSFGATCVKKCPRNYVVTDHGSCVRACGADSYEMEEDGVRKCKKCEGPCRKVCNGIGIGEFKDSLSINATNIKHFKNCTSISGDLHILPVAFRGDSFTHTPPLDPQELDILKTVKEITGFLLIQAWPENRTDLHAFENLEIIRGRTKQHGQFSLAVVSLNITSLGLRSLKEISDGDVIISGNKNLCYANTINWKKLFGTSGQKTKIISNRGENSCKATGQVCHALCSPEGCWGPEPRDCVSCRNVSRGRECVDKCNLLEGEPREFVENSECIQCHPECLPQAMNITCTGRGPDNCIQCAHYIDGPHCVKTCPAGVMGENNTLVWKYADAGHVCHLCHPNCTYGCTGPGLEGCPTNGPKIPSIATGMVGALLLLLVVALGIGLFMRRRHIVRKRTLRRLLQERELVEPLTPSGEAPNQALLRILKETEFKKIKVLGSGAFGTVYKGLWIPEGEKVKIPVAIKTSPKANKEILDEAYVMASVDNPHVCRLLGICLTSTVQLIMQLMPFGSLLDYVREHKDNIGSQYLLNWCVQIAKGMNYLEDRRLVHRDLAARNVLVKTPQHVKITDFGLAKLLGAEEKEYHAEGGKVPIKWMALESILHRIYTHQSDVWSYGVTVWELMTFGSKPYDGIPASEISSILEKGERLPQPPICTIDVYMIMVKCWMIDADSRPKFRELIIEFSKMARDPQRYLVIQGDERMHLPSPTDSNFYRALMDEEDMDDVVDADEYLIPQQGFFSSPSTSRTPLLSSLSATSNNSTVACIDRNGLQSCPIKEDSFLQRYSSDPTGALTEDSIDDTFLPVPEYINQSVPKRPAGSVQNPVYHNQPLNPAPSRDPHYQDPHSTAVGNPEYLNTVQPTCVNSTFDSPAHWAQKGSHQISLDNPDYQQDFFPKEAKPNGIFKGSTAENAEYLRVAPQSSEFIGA
Chain of EGFR L858R/C797S (P00533 25-1210 C797S/L858R): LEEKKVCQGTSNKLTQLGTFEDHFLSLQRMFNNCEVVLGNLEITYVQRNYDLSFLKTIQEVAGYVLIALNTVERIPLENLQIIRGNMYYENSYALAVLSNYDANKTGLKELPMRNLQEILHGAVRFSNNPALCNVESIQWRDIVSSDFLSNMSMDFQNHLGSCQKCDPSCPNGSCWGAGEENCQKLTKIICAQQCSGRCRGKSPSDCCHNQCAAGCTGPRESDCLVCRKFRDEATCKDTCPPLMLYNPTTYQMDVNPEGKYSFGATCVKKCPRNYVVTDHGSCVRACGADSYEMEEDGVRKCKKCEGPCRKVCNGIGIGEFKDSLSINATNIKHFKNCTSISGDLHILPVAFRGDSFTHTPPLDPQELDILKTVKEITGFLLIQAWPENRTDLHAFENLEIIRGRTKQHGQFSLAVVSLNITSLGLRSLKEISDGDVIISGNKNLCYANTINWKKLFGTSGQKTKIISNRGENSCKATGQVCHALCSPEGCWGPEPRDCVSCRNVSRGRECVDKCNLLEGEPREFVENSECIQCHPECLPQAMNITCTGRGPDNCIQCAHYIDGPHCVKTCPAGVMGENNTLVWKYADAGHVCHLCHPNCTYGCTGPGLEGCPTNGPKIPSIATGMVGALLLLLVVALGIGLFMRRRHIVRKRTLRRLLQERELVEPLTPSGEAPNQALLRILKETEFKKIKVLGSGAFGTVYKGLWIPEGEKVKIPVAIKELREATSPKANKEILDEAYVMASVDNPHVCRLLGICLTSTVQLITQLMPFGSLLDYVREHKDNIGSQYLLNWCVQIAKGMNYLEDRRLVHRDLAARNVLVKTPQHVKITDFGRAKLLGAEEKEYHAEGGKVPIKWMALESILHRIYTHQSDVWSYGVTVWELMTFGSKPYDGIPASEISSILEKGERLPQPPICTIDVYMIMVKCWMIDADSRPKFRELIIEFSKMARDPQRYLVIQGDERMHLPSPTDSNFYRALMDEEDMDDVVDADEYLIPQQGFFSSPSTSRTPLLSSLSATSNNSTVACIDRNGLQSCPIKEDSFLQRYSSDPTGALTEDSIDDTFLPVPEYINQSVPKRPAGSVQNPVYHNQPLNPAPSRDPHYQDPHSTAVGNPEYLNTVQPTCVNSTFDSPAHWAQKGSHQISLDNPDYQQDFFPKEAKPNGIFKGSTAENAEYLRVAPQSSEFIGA
Chain of EGFR wildtype (WT) (P00533 25-1210): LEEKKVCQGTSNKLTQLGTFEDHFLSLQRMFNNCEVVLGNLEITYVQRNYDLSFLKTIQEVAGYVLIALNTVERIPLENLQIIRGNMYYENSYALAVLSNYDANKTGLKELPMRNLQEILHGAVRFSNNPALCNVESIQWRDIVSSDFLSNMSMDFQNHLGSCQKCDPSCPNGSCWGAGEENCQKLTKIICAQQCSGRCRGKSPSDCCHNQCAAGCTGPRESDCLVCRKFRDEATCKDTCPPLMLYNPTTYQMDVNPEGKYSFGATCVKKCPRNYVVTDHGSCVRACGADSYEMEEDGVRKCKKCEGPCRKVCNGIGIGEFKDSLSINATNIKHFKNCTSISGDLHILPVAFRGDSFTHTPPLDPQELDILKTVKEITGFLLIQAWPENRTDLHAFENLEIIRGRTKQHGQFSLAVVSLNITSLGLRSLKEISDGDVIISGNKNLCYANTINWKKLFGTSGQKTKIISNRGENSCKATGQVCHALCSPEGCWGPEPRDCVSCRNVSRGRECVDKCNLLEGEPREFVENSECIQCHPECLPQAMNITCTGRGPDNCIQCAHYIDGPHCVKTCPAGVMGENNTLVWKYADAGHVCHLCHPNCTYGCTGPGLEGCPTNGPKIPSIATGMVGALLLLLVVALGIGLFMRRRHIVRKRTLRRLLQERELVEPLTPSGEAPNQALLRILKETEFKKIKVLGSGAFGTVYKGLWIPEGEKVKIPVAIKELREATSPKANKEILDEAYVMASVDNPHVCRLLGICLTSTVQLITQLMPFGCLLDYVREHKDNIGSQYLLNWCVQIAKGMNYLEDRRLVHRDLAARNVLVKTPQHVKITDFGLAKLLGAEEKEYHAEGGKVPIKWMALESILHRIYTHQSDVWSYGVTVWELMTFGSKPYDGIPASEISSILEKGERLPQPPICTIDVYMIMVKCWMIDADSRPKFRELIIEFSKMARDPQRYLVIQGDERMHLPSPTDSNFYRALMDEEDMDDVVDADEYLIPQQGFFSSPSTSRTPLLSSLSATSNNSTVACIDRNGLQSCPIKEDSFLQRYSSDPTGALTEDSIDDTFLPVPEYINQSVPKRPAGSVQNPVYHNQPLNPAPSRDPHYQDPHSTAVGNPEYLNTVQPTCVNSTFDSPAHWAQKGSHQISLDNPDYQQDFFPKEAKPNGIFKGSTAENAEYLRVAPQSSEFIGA
Chain of EGFR L858R/T790M/C797S (P00533 25-1210 T790M/C797S/L858R): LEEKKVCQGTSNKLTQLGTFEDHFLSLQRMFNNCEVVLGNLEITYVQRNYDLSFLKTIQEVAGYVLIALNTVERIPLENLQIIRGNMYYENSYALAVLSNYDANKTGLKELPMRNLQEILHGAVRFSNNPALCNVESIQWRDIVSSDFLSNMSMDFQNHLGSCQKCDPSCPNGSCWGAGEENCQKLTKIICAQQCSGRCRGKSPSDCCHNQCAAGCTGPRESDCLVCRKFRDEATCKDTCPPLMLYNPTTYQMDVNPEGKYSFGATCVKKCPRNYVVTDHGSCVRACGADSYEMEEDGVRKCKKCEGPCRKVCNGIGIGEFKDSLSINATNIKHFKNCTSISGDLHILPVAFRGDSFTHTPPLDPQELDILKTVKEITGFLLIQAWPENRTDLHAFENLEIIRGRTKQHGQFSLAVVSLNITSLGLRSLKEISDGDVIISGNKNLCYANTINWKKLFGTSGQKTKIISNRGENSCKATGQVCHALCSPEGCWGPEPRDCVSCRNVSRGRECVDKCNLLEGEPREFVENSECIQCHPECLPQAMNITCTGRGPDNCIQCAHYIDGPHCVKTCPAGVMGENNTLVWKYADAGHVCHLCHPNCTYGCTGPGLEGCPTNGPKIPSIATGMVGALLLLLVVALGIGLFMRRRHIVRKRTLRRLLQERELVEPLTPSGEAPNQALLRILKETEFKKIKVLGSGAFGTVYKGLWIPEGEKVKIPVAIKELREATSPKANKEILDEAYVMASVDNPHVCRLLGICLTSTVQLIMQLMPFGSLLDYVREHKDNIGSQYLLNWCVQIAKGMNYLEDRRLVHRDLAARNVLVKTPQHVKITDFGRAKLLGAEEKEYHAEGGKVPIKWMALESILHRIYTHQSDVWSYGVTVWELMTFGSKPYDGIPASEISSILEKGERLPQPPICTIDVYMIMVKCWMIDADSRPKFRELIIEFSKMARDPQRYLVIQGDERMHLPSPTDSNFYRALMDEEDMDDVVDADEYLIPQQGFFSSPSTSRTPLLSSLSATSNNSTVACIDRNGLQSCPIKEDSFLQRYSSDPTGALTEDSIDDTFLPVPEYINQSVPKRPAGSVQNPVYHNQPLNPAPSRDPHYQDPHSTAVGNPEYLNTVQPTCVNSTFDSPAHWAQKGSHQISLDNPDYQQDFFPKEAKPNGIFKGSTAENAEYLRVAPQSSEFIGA

As to `Cc1cnn(-c2cnc(Nc3ccnc(-c4cnn(S(=O)(=O)C5CC5)c4)n3)cc2N[C@H]2CC[C@@](C)(O)CC2)c1` [Example 184, (1s,4s)-4-((2-((2-(1-(Cyclopropylsulfonyl)-1H-pyrazol-4-yl)pyrimidin-4-yl)amino)-5-(4-methyl-1H-pyrazol-1-yl)pyridin-4-yl)amino)-1-methylcyclohexan-1-ol], the IC50 was 4.8 nM in test [1] (setting [6]); 0.05 nM in test [2] (setting [7]); 2 nM in test [3] (setting [8]); 32 nM in test [4] (setting [9]); 0.1 nM in test [5] (setting [10]).
For `Cn1ccc(-c2cnc(Nc3ccnc(-c4cnn(S(=O)(=O)C5CC5)c4)n3)cc2N[C@H]2CC[C@@H](O)CC2)n1` [Example 79, (1s,4s)-4-((2-((2-(1-(Cyclopropylsulfonyl)-1H-pyrazol-4-yl)pyrimidin-4-yl)amino)-5-(1-methyl-1H-pyrazol-3-yl)pyridin-4-yl)amino)cyclohexan-1-ol], the IC50 in test [1] (setting [11]) is 0.7 nM; in test [2] (setting [12]) it was 0.5 nM; in test [3] (setting [13]), 0.8 nM; in test [4] (setting [14]), 58.1 nM; in test [5] (setting [15]) it was 0.5 nM.
For `CN(C)CC[C@H]1CC[C@@H](Nc2cc(Nc3ccnc(-c4cnn(S(=O)(=O)C5CC5)c4)n3)ncc2-c2ccn(C)n2)CC1` [Example 240, N^2-(2-(1-(Cyclopropylsulfonyl)-1H-pyrazol-4-yl)pyrimidin-4-yl)-N^4-((1s,4s)-4-(2-(dimethylamino)ethyl)cyclohexyl)-5-(1-methyl-1H-pyrazol-3-yl)pyridine-2,4-diamine], the IC50 in test [1] (setting [6]) was determined as 0.2 nM; in test [2] (setting [7]), 0.1 nM; in test [3] (setting [8]), 0.04 nM; in test [4] (setting [9]), 0.2 nM; in test [5] (setting [10]) it was 0.4 nM.
Turning to `O=S(=O)(C1CC1)n1cc(-c2nccc(Nc3cc(N[C@H]4CCCNCC4)c(-c4ccn(C(F)F)n4)cn3)n2)cn1` [Example 17, (S)-N^4-(Azepan-4-yl)-N^2-(2-(1-(cyclopropylsulfonyl)-1H-pyrazol-4-yl)pyrimidin-4-yl)-5-(1-(difluoromethyl)-1H-pyrazol-3-yl)pyridine-2,4-diamine], the IC50 in test [1] (setting [11]) was 19.1 nM; in test [2] (setting [12]), 2.6 nM; in test [3] (setting [13]), 691 nM; in test [4] (setting [14]) it was more than 10000 nM; in test [5] (setting [15]), 1 nM.
`CO[C@H]1CCN(c2nccc(Nc3cc(N[C@H]4CC[C@@](C)(O)CC4)c(-c4ccn(C(F)F)n4)cn3)n2)C[C@H]1F` [Example 111, (1s,4s)-4-((5-(1-(Difluoromethyl)-1H-pyrazol-3-yl)-2-((2-((3R,4S)-3-fluoro-4-methoxypiperidin-1-yl)pyrimidin-4-yl)amino)pyridin-4-yl)amino)-1-methylcyclohexan-1-ol]: the IC50 in test [1] (setting [11]) is 253 nM; in test [1] (setting [6]) it was 86.8 nM; in test [2] (setting [12]), 0.2 nM; in test [2] (setting [7]), 0.1 nM; in test [3] (setting [13]) it was 67.2 nM; in test [3] (setting [8]) it was 19.7 nM. Besides, the IC50 in test [4] (setting [14]) was more than 10000 nM; in test [4] (setting [9]), 53.7 nM; in test [5] (setting [15]), 1.6 nM; in test [5] (setting [10]), 1.4 nM.
In the case of `CCOC(=O)c1ccn(-c2cnc(Nc3ccnc(-c4cnn(S(=O)(=O)C5CC5)c4)n3)cc2N[C@H]2CC[C@@](C)(O)CC2)n1` [Example 102, Ethyl 1-(6-((2-(1-(cyclopropylsulfonyl)-1H-pyrazol-4-yl)pyrimidin-4-yl)amino)-4-(((1s,4s)-4-hydroxy-4-methylcyclohexyl)amino)pyridin-3-yl)-1H-pyrazole-3-carboxylate], the IC50 was determined as 10.6 nM in test [1] (setting [11]); 6.3 nM in test [1] (setting [6]); 0.6 nM in test [2] (setting [12]); 0.3 nM in test [2] (setting [7]); 123 nM in test [3] (setting [13]); 4.4 nM in test [3] (setting [8]). For the same compound, the IC50 is more than 10000 nM in test [4] (setting [14]), 183 nM in test [4] (setting [9]), 0.4 nM in test [5] (setting [15]) and 0.5 nM in test [5] (setting [10]).
For the compound `CN[C@H]1CC[C@@H](Oc2cc(Nc3ccnc(-c4cnn(S(=O)(=O)C5CC5)c4)n3)ncc2-c2ccn(C(F)F)n2)CC1` [Example 65, 2-(1-(Cyclopropylsulfonyl)-1H-pyrazol-4-yl)-N-(5-(1-(difluoromethyl)-1H-pyrazol-3-yl)-4-(((1s,4s)-4-(methylamino)cyclohexyl)oxy)pyridin-2-yl)pyrimidin-4-amine], the IC50 in test [1] (setting [11]) is 54.5 nM; in test [1] (setting [6]) it was 33.5 nM; in test [2] (setting [12]), 4.2 nM; in test [2] (setting [7]), 0.6 nM; in test [3] (setting [13]), 622 nM; in test [3] (setting [8]), 33.5 nM. Besides, the IC50 in test [4] (setting [14]) was more than 10000 nM; in test [4] (setting [9]) it was 149 nM; in test [5] (setting [15]), 1.2 nM; in test [5] (setting [10]), 0.8 nM.
On to `CC(C)Nc1cc(Nc2ccnc(-c3cnn(S(=O)(=O)C4CC4)c3)n2)ncc1-c1ccn(CC(F)F)n1` [Example 248, N^2-(2-(1-(Cyclopropylsulfonyl)-1H-pyrazol-4-yl)pyrimidin-4-yl)-5-(1-(2,2-difluoroethyl)-1H-pyrazol-3-yl)-N^4-isopropylpyridine-2,4-diamine], for which the IC50 in test [1] (setting [6]) was found to be 14.7 nM; in test [2] (setting [7]), 0.3 nM; in test [3] (setting [8]), 4.8 nM; in test [4] (setting [9]), 286 nM; in test [5] (setting [10]), 0.5 nM.
The matching figures for `C[C@]1(O)CC[C@@H](Nc2cc(Nc3ccnc(Nc4ccnn4CC(F)F)n3)ncc2-c2ccn(C(F)F)n2)CC1` [Example 155, (1s,4s)-4-((2-((2-((1-(2,2-Difluoroethyl)-1H-pyrazol-5-yl)amino)pyrimidin-4-yl)amino)-5-(1-(difluoromethyl)-1H-pyrazol-3-yl)pyridin-4-yl)amino)-1-methylcyclohexan-1-ol]: 162 nM, 2.8 nM, 139 nM, 1100 nM and 4.2 nM.
`Cn1nc(-c2cnc(Nc3ccnc(-c4cnn(CC(F)F)c4)c3)nc2N[C@H]2CC[C@@](C)(O)CC2)cc1C(F)(F)F` [Example 361, (1s,4s)-4-((2-((2-(1-(2,2-Difluoroethyl)-1H-pyrazol-4-yl)pyridin-4-yl)amino)-5-(1-methyl-5-(trifluoromethyl)-1H-pyrazol-3-yl)pyrimidin-4-yl)amino)-1-methylcyclohexan-1-ol]: the IC50 is 14.2 nM in test [1] (Km ATP, read-out: IC50 del19/C797S, Km ATP); 1.1 nM in test [2] (Km ATP, read-out: IC50 L858R/T790M/C797S, Km ATP); 20 nM in test [3] (Km ATP, read-out: IC50 L858R/C797S, Km ATP); 685 nM in test [4] (Km ATP, read-out: IC50 WT, Km ATP); 0.5 nM in test [5] (Km ATP, read-out: IC50 del19/T790M/C797S, Km ATP).
As to `Cn1ccc(-c2cnc(Nc3ccnc(-c4cnn(S(=O)(=O)C5CC5)c4)n3)cc2N[C@H]2CC[C@@H](F)CC2)n1` [Example 174, N^2-(2-(1-(Cyclopropylsulfonyl)-1H-pyrazol-4-yl)pyrimidin-4-yl)-N^4-((1s,4s)-4-fluorocyclohexyl)-5-(1-methyl-1H-pyrazol-3-yl)pyridine-2,4-diamine], the IC50 in test [1] (setting [6]) amounted to 2.4 nM; in test [2] (setting [7]) it was 0.8 nM; in test [3] (setting [8]) it was 0.5 nM; in test [4] (setting [9]), 13.2 nM; in test [5] (setting [10]) it was 1.4 nM.
On to `O=S(=O)(C1CC1)n1cc(-c2nccc(Nc3cc(N[C@H]4CC[C@@H](CN5CCC5)CC4)c(-c4ccn(C(F)F)n4)cn3)n2)cn1` [Example 208, N^4-((1s,4s)-4-(Azetidin-1-ylmethyl)cyclohexyl)-N^2-(2-(1-(cyclopropylsulfonyl)-1H-pyrazol-4-yl)pyrimidin-4-yl)-5-(1-(difluoromethyl)-1H-pyrazol-3-yl)pyridine-2,4-diamine], for which the IC50 in test [1] (setting [11]) came out at 0.2 nM; in test [1] (setting [6]), 0.2 nM; in test [2] (setting [12]) it was 0.1 nM; in test [2] (setting [7]), 0.1 nM; in test [3] (setting [13]) it was 0.2 nM; in test [3] (setting [8]) it was 0.2 nM. For the same compound, the IC50 in test [4] (setting [14]) was 128 nM; in test [4] (setting [9]), 0.6 nM; in test [5] (setting [15]), 0.3 nM; in test [5] (setting [10]), 0.3 nM.
On to `O=S(=O)(C1CC1)n1cc(-c2nccc(Nc3cc(N[C@H]4CC[C@@H](O)C4)c(-c4ccn(C(F)F)n4)cn3)n2)cn1` [Example 14, (1R,3S)-3-((2-((2-(1-(Cyclopropylsulfonyl)-1H-pyrazol-4-yl)pyrimidin-4-yl)amino)-5-(1-(difluoromethyl)-1H-pyrazol-3-yl)pyridin-4-yl)amino)cyclopentan-1-ol], for which the IC50 in test [1] (setting [11]) amounted to 4.9 nM; in test [2] (setting [12]), 0.9 nM; in test [3] (setting [13]), 14.2 nM; in test [4] (setting [14]), 7510 nM; in test [5] (setting [15]), 0.6 nM.
The matching figures for `O=S(=O)(C1CC1)n1cc(-c2nccc(Nc3cc(N[C@@H]4CC[C@@H](O)C4)c(-c4ccn(C(F)F)n4)cn3)n2)cn1` [Example 12, (1R,3R)-3-((2-((2-(1-(Cyclopropylsulfonyl)-1H-pyrazol-4-yl)pyrimidin-4-yl)amino)-5-(1-(difluoromethyl)-1H-pyrazol-3-yl)pyridin-4-yl)amino)cyclopentan-1-ol]: 30 nM, 2.8 nM, 46.9 nM, more than 10000 nM and 1.2 nM.
